Counter-ions that a name gives are not always drawn.
Each compound was assayed against RIPK1 (recombinant GST-RIPK1 kinase domain, residues 1-327) (Homo sapiens (Human), UniProt Q13546) (assay: RIPK1-ADP-Glo Enzymatic Assay). Conditions: ADP-Glo; 25 nM GST-RIPK1, 300 μM ATP; assay lower limit ~25 nM; read-out: RIPK1 V0 Ec50.
Assay type: biochemical
Procedure, shortened: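 Using dephosphorylated MBP (3 μM) as substrate and 300 μM ATP, 25 nM baculovirus-produced enzyme was reacted for 150 min after a 30-min compound pre-incubation. Luminescent ADP detection followed; lower confidence limit ~25 nM.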

Sequence of RIPK1 (recombinant GST-RIPK1 kinase domain, residues 1-327) (Q13546 1-327): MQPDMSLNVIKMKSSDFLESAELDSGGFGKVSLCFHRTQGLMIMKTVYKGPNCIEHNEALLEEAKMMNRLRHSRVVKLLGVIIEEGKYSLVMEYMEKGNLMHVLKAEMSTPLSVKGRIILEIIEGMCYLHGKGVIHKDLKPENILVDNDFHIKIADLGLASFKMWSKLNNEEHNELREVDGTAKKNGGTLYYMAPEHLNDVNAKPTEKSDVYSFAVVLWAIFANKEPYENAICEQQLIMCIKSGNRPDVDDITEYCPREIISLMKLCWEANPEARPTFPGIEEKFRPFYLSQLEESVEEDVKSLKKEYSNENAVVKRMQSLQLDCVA

First: O=C(c1cccc(N2CCOCC2)c1)N1CCC2(CC1)O[C@@H]1CC[C@@H](c3cc(F)cc(F)c3)N1C2=O [Example 6.47, (5′S,7a′R)-5′-(3,5-difluorophenyl)-1-[3-(morpholin-4-yl)-benzene-1-carbonyl]-tetrahydro-3′H-spiro [piperidine-4,2′-pyrrolo[2,1-b][1,3]oxazol]-3′-one]
Second: Cn1cccc1C(=O)N1CCC2(CC1)O[C@@H]1CC[C@@H](c3cc(F)cc(F)c3)N1C2=O [Example 5.48, (5′S,7a′R)-5′-(3,5-difluoro-phenyl)-1-(1-methyl-1H-pyrrole-2-carbonyl)tetra-hydro-3′H-spiro[piperidine-4,2′-pyrrolo[2,1-b]oxazol]-3′-one]
The EC50 of the first is lower: less than 25 nM for the first, 42.2 nM for the second. The first is the more potent here.

`N#Cc1ccc(N2CCC3(O[C@@H]4CC[C@@H](c5ccccc5)N4C3=O)C(F)C2)n2ncnc12` (stereo partly drawn) [Example 4.258, 5-[(5′S,7a′R)-3-fluoro-3′-oxo-5′-phenyltetrahydro-1H,3′H-spiro[piperidine-4,2′-pyrrolo[2,1-b] [1,3]oxazol]-1-yl][1,2,4]triazolo[1,5-a] pyridine-8-carbonitrile] and `CC1CN(c2cccc3ncnn23)CCC12O[C@@H]1CC[C@@H](c3ccccc3)N1C2=O` (stereo partly drawn) [Example 4.245, (4R,5′S,7a′R)-3-methyl-5′-phenyl-1-([1,2,4]triazolo[1,5-a]pyridin-5-yl)tetrahydro-3′H-spiro[piperidine-4,2′-pyrrolo[2,1-b] [1,3]oxazol]-3′-one] cannot be ordered by EC50: less than 25 nM for the first, less than 25 nM for the second.

Going from `CC1CC2(CCN1C(=O)c1ccccc1)O[C@@H]1CC[C@@H](c3cc(F)cc(F)c3)N1C2=O` (stereo partly drawn) [Example 6.106, (4R,5′S,7a′R)-1-(benzenecarbonyl)-5′-(3,5-difluorophenyl)-2-methyltetrahydro-3′H-spiro[piperidine-4,2′-pyrrolo[2,1-b] [1,3]oxazol]-3′-one] to `CC1CN(C(=O)c2ccccc2)CCC12O[C@@H]1CC[C@@H](c3cc(F)cc(F)c3)N1C2=O` (stereo partly drawn) [Example 6.110, (5′S,7a′R)-1-(benzene-carbonyl)-5′-(3,5-difluorophenyl)-3-methyltetrahydro-3′H-spiro[piperidine-4,2′-pyrrolo[2,1-b][1,3]-oxazol]-3′-one], the EC50 falls from 202 nM to less than 25 nM.

Compared with `O=C1N2[C@@H](CC[C@H]2c2ccccc2)OC12CCN(c1ccn(-c3cnccn3)n1)CC2` [Example 11.5, (5′S,7a′R)-5′-phenyl-1-[1-(pyrazin-2-yl)-1H-pyrazol-3-yl]tetrahydro-3′H-spiro[piperidine-4,2′-pyrrolo[2,1-b][1,3]oxazol]-3′-one], `Cc1ncc(C)c(N2CCC3(CC2)O[C@@H]2CC[C@@H](c4ccccc4)N2C3=O)n1` [Example 11.34, (5′S,7a′R)-1-(2,5-dimethylpyrimidin-4-yl)-5′-phenyltetrahydro-3′H-spiro[piperidine-4,2′-pyrrolo[2,1-b][1,3]oxazol]-3′-one] is 8.9-fold higher in EC50: 67.7 nM for the first, 601 nM for the second. The first is the more potent here.

`O=C(c1ccccc1)N1CCC2(CC1)O[C@@H]1CC[C@@H](c3cccc(F)c3)N1C2=O` [Example 1.5, (5′S,7a′R)-1-(benzenecarbonyl)-5′-(3-fluorophenyl)tetrahydro-3′H-spiro[piperidine-4,2′-pyrrolo[2,1-b] [1,3]oxazol]-3′-one] and `O=C(c1cccc(F)c1)N1CCC2(CC1)O[C@@H]1CC[C@@H](c3cccc(F)c3)N1C2=O` [Example 6.116, (5′S,7a′R)-1-(3-fluoro-benzene-1-carbonyl)-5′-(3-fluorophenyl)-tetrahydro-3′H-spiro [piperidine-4,2′-pyrrolo[2,1-b][1,3]oxazol]-3′-one] cannot be ordered by EC50: less than 25 nM for the first, less than 25 nM for the second.

Going from `CC(F)c1cc(N2CCC3(CC2)O[C@@H]2CC[C@@H](c4ccccc4)N2C3=O)ncn1` (stereo partly drawn) [Example 4.215, (5′S,7a′R)-1-[6-(1-fluoroethyl)pyrimidin-4-yl]-5′-phenyltetrahydro-3′H-spiro[piperidine-4,2′-pyrrolo[2,1-b] [1,3]oxazol]-3′-one] to `CCOC(=O)c1cc(N2CCC3(CC2)O[C@@H]2CC[C@@H](c4ccccc4)N2C3=O)ncn1` [Example 4.23, ethyl 6-[(5′S,7a′R)-3′-oxo-5′-phenyltetrahydro-1H,3′H-spiro[piperidine-4,2′-pyrrolo[2,1-b] [1,3]oxazol]-1-yl]pyrimidine-4-carboxylate], the EC50 falls from 552 nM to 52.8 nM (10-fold). The second is the more potent here.

`O=C1N2[C@H](CC13CCN(c1ccnc4c(F)cnn14)CC3)OC[C@H]2c1ccccc1` [Example 4.120, (3′R,7a′S)-1-(3-fluoropyrazolo[1,5-a]pyrimidin-7-yl)-3′-phenyltetrahydro-5′H-spiro[piperidine-4,6′-pyrrolo[2,1-b] [1,3]oxazol]-5′-one] and `CCc1ccc(N2CCC3(CC2)O[C@@H]2CC[C@@H](c4ccccc4)N2C3=O)n2ncnc12` [Example 4.221, (5′S,7a′R)-1-(8-ethyl[1,2,4]triazolo[1,5-a]pyridin-5-yl)-5′-phenyltetrahydro-3′H-spiro[piperidine-4,2′-pyrrolo[2,1-b] [1,3]oxazol]-3′-one] cannot be ordered by EC50: less than 25 nM for the first, less than 25 nM for the second.

Going from `CC1CC2(CCN1C(=O)c1ccccc1)O[C@@H]1CC[C@@H](c3cc(F)cc(F)c3)N1C2=O` (stereo partly drawn) [Example 6.107, (4R,5′S,7a′R)-1-(benzenecarbonyl)-5′-(3,5-difluorophenyl)-2-methyltetrahydro-3′H-spiro[piperidine-4,2′-pyrrolo[2,1-b] [1,3]oxazol]-3′-one] to `N#Cc1ccccc1CN1CCC2(CC1)O[C@@H]1CC[C@@H](c3cc(F)cc(F)c3)N1C2=O` [Example 22.3, 2-{[(5′S,7a′R)-5′-(3,5-difluorophenyl)-3′-oxotetrahydro-1H,3′H-spiro[piperidine-4,2′-pyrrolo[2,1-b][1,3]oxazol]-1-yl]methyl}benzonitrile], the EC50 rises from less than 25 nM to 807 nM.

Compared with `N#Cc1ncc(N2CCC3(CC2)O[C@@H]2CC[C@@H](c4cc(F)cc(F)c4)N2C3=O)cn1` [Example 4.45, 5-[(5′S,7a′R)-5′-(3,5-difluorophenyl)-3′-oxotetrahydro-1H,3′H-spiro[piperidine-4,2′-pyrrolo[2,1-b] [1,3]oxazol]-1-yl]pyrimidine-2-carbonitrile], `O=C1N2[C@@H](CC[C@H]2c2cc(F)cc(F)c2)OC12CCN(c1ncc(C3CC3)cn1)CC2` [Example 4.56, (5′S,7a′R)-1-(5-cyclopropylpyrimidin-2-yl)-5′-(3,5-difluorophenyl)tetrahydro-3′H-spiro[piperidine-4,2′-pyrrolo[2,1-b] [1,3]oxazol]-3′-one] is 2.3-fold higher in EC50: 250 nM for the first, 565 nM for the second.

Going from `O=C1N2[C@@H](CC[C@H]2c2ccccc2)OC12CN(c1cccc3ncnn13)C2` [Example 13.22, (5′S,7a′R)-1-([1,2,4]triazolo[1,5-a]pyridin-5-yl)-5′-phenyltetrahydro-3′H-spiro[azetidine-3,2′-pyrrolo[2,1-b]oxazol]-3′-one, TFA salt] to `O=C1N2[C@@H](CC[C@H]2c2ccccc2F)OC12CN(c1ccnc(-c3ccc(F)cc3)c1)C2` [Example 4.139, (5′S,7a′R)-5′-(2-fluorophenyl)-1-[2-(4-fluorophenyl)pyridin-4-yl]tetrahydro-3′H-spiro[azetidine-3,2′-pyrrolo[2,1-b] [1,3]oxazol]-3′-one], the EC50 falls from 37.6 nM to less than 25 nM.

Compared with `COc1cc(N2CCC3(CC2)O[C@@H]2CC[C@@H](c4cc(F)cc(F)c4)N2C3=O)ncn1` [Example 4.11, (5′S,7a′R)-5′-(3,5-difluorophenyl)-1-(6-methoxypyrimidin-4-yl)tetrahydro-3′H-spiro[piperidine-4,2′-pyrrolo[2,1-b] [1,3]oxazol]-3′-one], `COc1ncccc1C(=O)N1CCC2(CC1)O[C@@H]1CC[C@@H](c3cc(F)cc(F)c3)N1C2=O` [Example 6.18, (5′S,7a′R)-5′-(3,5-difluorophenyl)-1-(2-methoxypyridine-3-carbonyl)tetrahydro-3′H-spiro[piperidine-4,2′-pyrrolo[2,1-b] [1,3]oxazol]-3′-one] is higher in EC50: less than 25 nM for the first, 154 nM for the second.

Compared with `O=C(c1cncnc1)N1CCC2(CC1)O[C@@H]1CC[C@@H](c3cc(F)cc(F)c3)N1C2=O` [Example 6.40, (5′S,7a′R)-5′-(3,5-difluorophenyl)-1-(pyrimidine-5-car-bonyl)tetrahydro-3′H-spiro[piperidine-4,2′-pyrrolo[2,1-b][1,3]oxazol]-3′-one], `Cc1cccc(CN2CCC3(CC2)O[C@@H]2CC[C@@H](c4cc(F)cc(F)c4)N2C3=O)c1` [Example 22.4, (5′S,7a′R)-5′-(3,5-difluorophenyl)-1-[(3-methylphenyl)methyl] tetrahydro-3′H-spiro[piperidine-4,2′-pyrrolo[2,1-b][1,3]oxazol]-3′-one] is 1.6-fold higher in EC50: 436 nM for the first, 701 nM for the second. The first is the more potent here.

Going from `O=C1N2[C@@H](CC[C@H]2C2CCCCC2)OC12CCN(c1ccnc3c(F)cnn13)CC2` [Example 4.87, (5′S,7a′R)-5′-cyclohexyl-1-(3-fluoropyrazolo [1,5-a]pyrimidin-7-yl)tetrahydro-3′H-spiro[piperidine-4,2′-pyrrolo[2,1-b]oxazol]-3′-one, TFA salt] to `COCCN1Cc2nc(N3CCC4(CC3)O[C@@H]3CC[C@@H](c5ccccc5)N3C4=O)ccc2C1=O` [Example 4.191, (5′S,7a′R)-1-[6-(2-methoxyethyl)-5-oxo-6,7-dihydro-5H-pyrrolo[3,4-b]pyridin-2-yl]-5′-phenyltetrahydro-3′H-spiro[piperidine-4,2′-pyrrolo[2,1-b] [1,3]oxazol]-3′-one], the EC50 rises from less than 25 nM to 53 nM. The first is the more potent here.

Compared with `C[C@@]12CC[C@@H](c3ccccc3)N1C(=O)C1(CCN(C(=O)c3ccccc3)CC1)O2` [Example 6.98, (5′S,7a′R)-1-(benzene-carbonyl)-7a′-methyl-5′-phenyltetrahydro-3′H-spiro[piperidine-4,2′-pyrrolo[2,1-b] [1,3]oxazol]-3′-one], `N#Cc1ccc(F)c(C(=O)N2CCC3(CC2)O[C@@H]2CC[C@@H](c4cccc(F)c4)N2C3=O)c1` [Example 6.130, 4-fluoro-3-[(5′S,7a′R)-5′-(3-fluorophenyl)-3′-oxotetrahydro-1H,3′H-spiro[piperidine-4,2′-pyrrolo[2,1-b][1,3]-oxazole]-1-carbonyl] benzonitrile] is lower in EC50: 523 nM for the first, less than 25 nM for the second.

Source: patent publication US12180226B2, “Spirotricycle RIPK1 inhibitors and methods of uses thereof” (Merck Sharp & Dohme LLC, priority 2021, dated 2024)
